From patent publication US11192889B2, “Tetrahydronaphthyridinepentanamide integrin antagonists” (The Rockefeller University, priority 2016, dated 2021)
pEC50, pIC50: −log10 of the molar value. Several values for one entry are separate records, joined by “and”; a condition that tells them apart may be missing. Equal entries are not always repeated.

How the values were obtained:
Type in all cases: cell-based
HEK-293-αVβ3 cells [1] = assay: AP5 Binding Assay; conditions: 10 mM EDTA; average±SD of 17 experiments
Description: (§1) HEK-293 Cells Expressing αVβ3. HEK-293 cells were transfected using lipofectamine 2000 (Invitrogen #11668030) with the cDNA for αV using the pEF1/V5-His A vector and the cDNA for β3 using the vector pcDNA3.1. Cells expressing αVβ3 were identified by their reaction with murine monoclonal antibodies (mAbs) LM609 and 7E3, and stable cell lines were established by repetitive sorting using LM609. […] HEK-293-αVβ3 cells for assays are counted in an automated cell counter (ADVIA 120) and adjusted to values appropriate for each assay.
(§2) AP5 Binding Assay. HEK-293-αVβ3 cells are harvested using 0.05% trypsin 0.5 mM EDTA, washed with HBMT once, and resuspended in HBMT containing 1 mM Mg2+ and 2 mM Ca2+. The cells are counted and adjusted to 0.5×10^6 cells per sample. The compound to be tested and fluorescently labeled mAb AP5 (either Alexa 488 or Alexa 674; 10 μg/mL) are added and incubated for 30 minutes at 37° C. The cells are then washed and analyzed by flow cytometry (BD FACSCalibur) at the appropriate wavelength for detecting the AP5 fluorophore. In each assay, cilengitide (1 μM) and 10 mM EDTA are included as positive controls and untreated cells are used as the negative control. The concentration of the test compound required to induce the expression of 50% of the AP5 expression induced by cilengitide is calculated and defined as the EC50. The EC50 for cilengitide was determined based on the expression induced by EDTA.

HEK-293-αVβ3 cells [2] = biological target: T1, HEK-293-αVβ3 cells (Homo sapiens, UniProt P05106+P06756); assay: AP5 Binding Assay; conditions: for activation at 10 µM: relative to AP5 expression induced by cilengitide, read-out: AP5 expression induced at the highest concentration; for pEC50: concentration inducing 50% of the AP5 expression induced by 1 μM cilengitide
Description: as §1, §2

HEK-293-αVβ3 cells [3] = biological target: T1, HEK-293-αVβ3 cells; assay: αVβ3 Cell Adhesion to Fibrinogen Assay; design: IC50; other: dose reducing by 50% the adhesion of HEK-293-αVβ3 cells to fibrinogen; untreated cells 100% adhesion, 10 mM EDTA 0%; conditions: for pIC50: dose reducing by 50% the adhesion of HEK-293-αVβ3 cells to fibrinogen, separate determinations listed
Description: as §1
αVβ3 Cell Adhesion to Fibrinogen Assay. Polystyrene 96-well microtiter plates (Costar, 3590) are precoated with 3.5 μg/mL of purified fibrinogen (Enzyme Research Laboratories) in 0.15 M NaCl, 0.01 M Tris/HCL, pH 7.4 for 1 hour at 37° C. The wells are then washed and incubated with HEPES-Buffered Modified Tyrode's solution (HBMT; 0.128 M NaCl, 10 mM HEPES, 12 mM NaHCO3, 0.4 mM NaH2PO4, 2.7 mM KCl, 0.35% bovine serum albumin (Fisher), 0.1% glucose, pH 7.4) for 1 hour at room temperature or overnight at 4° C. Wells are washed with HBMT containing 1 mM Mg2+ and 2 mM Ca2+ and then 50 μL of HEK-293-αVβ3 cells that have been pretreated with the compound to be tested for 20 minutes at room temperature are added to each well at a concentration of 3,000 cells/μL. After 30-32 minutes the wells are washed with HBMT containing Ca2+ and Mg2+ three times and then the adherent cells are lysed and the acid phosphatase activity that is released is measured by: 1. adding phosphatase substrate (Sigma EC 224-246-5) at 2 mg/mL in 0.1 M Na citrate, pH 5.6, 0.1% triton X-100 for 1 hour at room temperature; 2. stopping the reaction by adding 50 μL of 2 M NaOH; and 3. analyzing the samples in a spectrophotometer at 405 nm. In each assay, 10 mM EDTA is used as a positive control and untreated cells are used as a negative control. The IC50 is the dose of test compound that reduces by 50% the adhesion of the HEK-293-αVβ3 cells, taking the results with untreated cells as 100% and the results in the presence of EDTA as 0%. In some instances more than one IC50 determination was made, in which case, results of separate determinations are reported. IC50's were not determined for all compounds in the table; for some of these test compounds the inhibition at specific doses are reported. In some instances, the test compound produced a greater reduction than 10 mM EDTA, and these are shown as negative numbers.

T1 sequence (P05106 whole entry): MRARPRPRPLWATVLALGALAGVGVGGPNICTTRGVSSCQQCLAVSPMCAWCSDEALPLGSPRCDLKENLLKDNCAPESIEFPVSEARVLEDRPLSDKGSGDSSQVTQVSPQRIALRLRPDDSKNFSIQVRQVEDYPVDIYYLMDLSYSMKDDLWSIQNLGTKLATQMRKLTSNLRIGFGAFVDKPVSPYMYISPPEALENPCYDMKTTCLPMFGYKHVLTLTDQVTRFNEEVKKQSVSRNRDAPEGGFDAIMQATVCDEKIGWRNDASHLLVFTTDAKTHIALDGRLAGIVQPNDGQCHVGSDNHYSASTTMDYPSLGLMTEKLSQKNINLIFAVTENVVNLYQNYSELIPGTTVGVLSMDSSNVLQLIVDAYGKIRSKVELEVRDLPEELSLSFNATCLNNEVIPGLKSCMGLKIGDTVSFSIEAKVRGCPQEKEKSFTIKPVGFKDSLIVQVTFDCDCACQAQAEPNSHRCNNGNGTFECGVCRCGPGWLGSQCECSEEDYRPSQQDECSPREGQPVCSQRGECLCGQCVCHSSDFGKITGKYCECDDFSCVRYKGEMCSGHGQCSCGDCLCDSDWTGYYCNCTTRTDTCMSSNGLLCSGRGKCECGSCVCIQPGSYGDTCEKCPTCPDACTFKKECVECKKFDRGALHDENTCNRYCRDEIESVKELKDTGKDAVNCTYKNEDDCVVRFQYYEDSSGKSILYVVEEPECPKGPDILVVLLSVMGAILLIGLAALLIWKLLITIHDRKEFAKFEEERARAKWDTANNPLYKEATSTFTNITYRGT
T1 sequence (P06756 whole entry): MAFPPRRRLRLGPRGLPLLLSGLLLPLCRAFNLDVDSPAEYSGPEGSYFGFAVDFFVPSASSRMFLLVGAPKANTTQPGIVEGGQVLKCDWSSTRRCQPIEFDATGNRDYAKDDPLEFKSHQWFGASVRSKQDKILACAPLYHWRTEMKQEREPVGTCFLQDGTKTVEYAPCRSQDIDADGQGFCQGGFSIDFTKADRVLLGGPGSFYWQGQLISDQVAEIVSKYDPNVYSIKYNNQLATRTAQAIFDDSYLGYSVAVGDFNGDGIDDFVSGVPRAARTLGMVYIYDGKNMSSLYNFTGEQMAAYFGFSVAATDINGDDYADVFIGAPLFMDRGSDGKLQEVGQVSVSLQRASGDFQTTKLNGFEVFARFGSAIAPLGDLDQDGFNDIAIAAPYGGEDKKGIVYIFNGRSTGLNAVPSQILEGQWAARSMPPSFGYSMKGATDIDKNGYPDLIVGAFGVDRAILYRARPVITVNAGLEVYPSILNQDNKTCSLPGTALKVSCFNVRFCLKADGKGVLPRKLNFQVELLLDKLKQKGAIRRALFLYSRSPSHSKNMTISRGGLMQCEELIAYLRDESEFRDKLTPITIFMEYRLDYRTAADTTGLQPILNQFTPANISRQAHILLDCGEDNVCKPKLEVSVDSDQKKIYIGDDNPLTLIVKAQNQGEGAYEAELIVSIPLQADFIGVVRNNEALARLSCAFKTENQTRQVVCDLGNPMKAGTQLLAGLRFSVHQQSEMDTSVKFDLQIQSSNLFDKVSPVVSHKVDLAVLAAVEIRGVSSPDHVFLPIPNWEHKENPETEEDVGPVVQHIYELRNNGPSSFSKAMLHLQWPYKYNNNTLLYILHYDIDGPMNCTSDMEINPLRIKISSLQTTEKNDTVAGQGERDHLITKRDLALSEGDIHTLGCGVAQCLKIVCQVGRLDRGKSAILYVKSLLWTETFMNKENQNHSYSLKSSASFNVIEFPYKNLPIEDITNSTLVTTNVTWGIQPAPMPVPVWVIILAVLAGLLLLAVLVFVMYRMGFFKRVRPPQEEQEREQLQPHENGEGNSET

| activation at 10 µM (HEK-293-αVβ3 cells [2]) | pEC50 (HEK-293-αVβ3 cells [2]) | pIC50 (HEK-293-αVβ3 cells [3]) | inhibition at specific dose 0.1 (HEK-293-αVβ3 cells [3]; dose 0.1 (table in μM), untreated cells 100% adhesion, 10 mM EDTA 0%) | SMILES | AP5 expression (HEK-293-αVβ3 cells [1]) |
| --- | --- | --- | --- | --- | --- |
| 5% | < 5.00 | 6.82 | – | O=C(CCCCc1ccc2c(n1)NCCC2)NCC[C@@H](Nc1nc2ccccc2o1)C(=O)O [Example 85, (R)-2-(benzo[d]oxazol-2-ylamino)-4-(5-(5,6,7,8-tetrahydro-1,8-naphthyridin-2-yl)pentanamido)butanoic acid] | – |
| 19% | < 5.00 | 6.27 | – | COc1ccc(C(CCNC(=O)CCCCc2ccc3c(n2)NCCC3)C(=O)O)cn1 (centres unmarked) [Example 79, 2-(6-methoxy-3-pyridyl)-4-[5-(5,6,7,8-tetrahydro-1,8-naphthyridin-2-yl)pentanoylamino]butanoic acid] | – |
| 12% | < 5.00 | 6.69 | – | O=C(CCCCc1nc2c(cc1C1CC1)CCCN2)NCCC(NC(=O)OCc1ccccc1)C(=O)O (centres unmarked) [Example 82, 2-(benzyloxycarbonyl-amino)-4-[5-(3-cyclopropyl-5,6,7,8-tetrahydro-1,8-naphthyridin-2-yl)pentanoyl-amino]butanoic acid] | – |

Continued, compound first:

| SMILES | activation at 10 µM (HEK-293-αVβ3 cells [2]) | pEC50 (HEK-293-αVβ3 cells [2]) | pIC50 (HEK-293-αVβ3 cells [3]) | inhibition at specific dose 0.1 (HEK-293-αVβ3 cells [3]; dose 0.1 (table in μM), untreated cells 100% adhesion, 10 mM EDTA 0%) | AP5 expression (HEK-293-αVβ3 cells [1]) |
| --- | --- | --- | --- | --- | --- |
| O=C(O)CN(CCN(CC(=O)O)CC(=O)O)CC(=O)O [EDTA, reference compound] | – | – | – | – | 21.8±5.9 arbitrary fluorescence units |
| O=C(CCCCc1ccc2c(n1)NCCC2)NCCC(NC(=O)c1ccccn1)C(=O)O (centres unmarked) [Example 25] | 16% | < 5.00 | > 7.00 | – | – |
| O=C(CCCCc1ccc2c(n1)NCCC2)NCCC(NC(=O)c1nc2ccccc2s1)C(=O)O (centres unmarked) [Example 75, 2-(1,3-benzothiazole-2-carbonylamino)-4-[5-(5,6,7,8-tetrahydro-1,8-naphthyridin-2-yl)pentanoylamino]butanoic acid] | 9% | < 5.00 | > 7.00 and 7.26 and 7.19 | – | – |
| O=C(CCCCc1ccc2c(n1)NCCC2)NCCC(NS(=O)(=O)c1cccnc1)C(=O)O (centres unmarked) [Example 44] | 22% | < 5.00 | 5.88 | 40% | – |
| CC1(C)[C@@H]2CC[C@]1(CS(=O)(=O)NC(CCNC(=O)CCCCc1ccc3c(n1)NCCC3)C(=O)O)C(=O)C2 (some centres unmarked) [Example 50] | 16% | < 5.00 | > 7.00 | – | – |
| COC(=O)NC(CCNC(=O)CCCCc1ccc2c(n1)NCCC2)C(=O)O (centres unmarked) [Example 36] | 12% | < 5.00 | > 7.00 | – | – |
